Assay results as given in the supplement of paper PMC10307832.

Key:
Experiment in all cases: relative viability (nuclei count vs DMSO), 5 days (fraction); higher = more cells survive
LCLC-97TM1 = test system: LCLC-97TM1
Method in brief: (§1)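 Lung cancer cell lines in 1536-well plates got either a single drug or a fixed anchor-drug dose together with five library-drug doses (not always all listed) in √10 steps, by pin tool, on the day after seeding. Nuclei were counted after 5 days, and relative viability is the treated-to-vehicle ratio of nuclei counts. Values are medians of duplicate plates.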

NCI-H661 = test system: NCI-H661
Method in brief: as §1

NCI-H1651 = test system: NCI-H1651
Method in brief: as §1

NCI-H1650 = test system: NCI-H1650
Method in brief: as §1

NCI-H650 = test system: NCI-H650
Method in brief: as §1

ABC-1 = test system: ABC-1
Method in brief: as §1

NCI-H727 = test system: NCI-H727
Method in brief: as §1

NCI-H2087 = test system: NCI-H2087
Method in brief: as §1

PC-3 [JPC-3] = test system: PC-3 [JPC-3]
Method in brief: as §1

NCI-H596 = test system: NCI-H596
Method in brief: as §1

NCI-H1792 = test system: NCI-H1792
Method in brief: as §1

LC-2-ad = test system: LC-2-ad
Method in brief: as §1

NCI-H441 = test system: NCI-H441
Method in brief: as §1

CAL-12T = test system: CAL-12T
Method in brief: as §1

NCI-H1944 = test system: NCI-H1944
Method in brief: as §1

NCI-H520 = test system: NCI-H520
Method in brief: as §1

A-427 = test system: A-427
Method in brief: as §1

NCI-H1915 = test system: NCI-H1915
Method in brief: as §1

H3255 = test system: H3255
Method in brief: as §1

BEN = test system: BEN
Method in brief: as §1

NCI-H460 = test system: NCI-H460
Method in brief: as §1

NCI-H2023 = test system: NCI-H2023
Method in brief: as §1

201T = test system: 201T
Method in brief: as §1

With O=C(O)c1ccc(-c2c[nH]c3ncc(-c4ccccc4)cc23)cc1C1CCCC1 + N=C(N)NC(=N)NCCc1ccccc1 [Phenformin] (partner 250 µM) as the compound, how does the relative viability (LCLC-97TM1; first compound 0.04 µM) read?
The relative viability was 0.475.

And the relative viability (LCLC-97TM1; first compound 0.1265 µM)?
Its relative viability is 0.435.

And the relative viability (LCLC-97TM1; first compound 0.4 µM)?
The relative viability was 0.5.

And the relative viability (LCLC-97TM1; first compound 1.265 µM)?
Its relative viability is 0.399.

And the relative viability (NCI-H661; first compound 0.04 µM)?
The relative viability was 0.292.

And the relative viability (NCI-H661; first compound 0.4 µM)?
The relative viability was 0.285.

What about the relative viability (NCI-H661; first compound 1.265 µM) of the same compound?
Its relative viability is 0.278.

And the relative viability (NCI-H1651; first compound 0.04 µM)?
The relative viability was 0.349.

What about the relative viability (NCI-H1651; first compound 0.1265 µM) of the same compound?
The relative viability was 0.328.

And the relative viability (NCI-H1651; first compound 0.4 µM)?
The relative viability was 0.278.

What about the relative viability (NCI-H1651; first compound 1.265 µM) of the same compound?
The relative viability was 0.189.

And the relative viability (NCI-H1650; first compound 0.04 µM)?
The relative viability was 0.469.

And the relative viability (NCI-H1650; first compound 0.1265 µM)?
The relative viability was 0.472.

And the relative viability (NCI-H1650; first compound 0.4 µM)?
The relative viability was 0.338.

What about the relative viability (NCI-H1650; first compound 1.265 µM) of the same compound?
The relative viability was 0.2.

And the relative viability (NCI-H650; first compound 0.04 µM)?
Its relative viability is 0.42.

And the relative viability (NCI-H650; first compound 0.1265 µM)?
Its relative viability is 0.494.

What about the relative viability (NCI-H650; first compound 0.4 µM) of the same compound?
Its relative viability is 0.448.

And the relative viability (NCI-H650; first compound 1.265 µM)?
Its relative viability is 0.399.

What about the relative viability (ABC-1; first compound 0.04 µM) of the same compound?
Its relative viability is 0.272.

And the relative viability (ABC-1; first compound 0.1265 µM)?
Its relative viability is 0.232.

What about the relative viability (ABC-1; first compound 0.4 µM) of the same compound?
Its relative viability is 0.229.

What about the relative viability (ABC-1; first compound 1.265 µM) of the same compound?
The relative viability was 0.181.

What about the relative viability (NCI-H727; first compound 0.04 µM) of the same compound?
Its relative viability is 0.464.

What about the relative viability (NCI-H727; first compound 0.1265 µM) of the same compound?
Its relative viability is 0.684.

What about the relative viability (NCI-H727; first compound 0.4 µM) of the same compound?
Its relative viability is 0.582.

What about the relative viability (NCI-H727; first compound 1.265 µM) of the same compound?
The relative viability was 0.509.

What about the relative viability (NCI-H2087; first compound 0.04 µM) of the same compound?
Its relative viability is 0.472.

And the relative viability (NCI-H2087; first compound 0.1265 µM)?
The relative viability was 0.461.

What about the relative viability (NCI-H2087; first compound 0.4 µM) of the same compound?
The relative viability was 0.397.

And the relative viability (NCI-H2087; first compound 1.265 µM)?
The relative viability was 0.393.

And the relative viability (PC-3 [JPC-3]; first compound 0.04 µM)?
The relative viability was 0.475.

What about the relative viability (PC-3 [JPC-3]; first compound 0.1265 µM) of the same compound?
Its relative viability is 0.501.

And the relative viability (PC-3 [JPC-3]; first compound 0.4 µM)?
Its relative viability is 0.468.

What about the relative viability (PC-3 [JPC-3]; first compound 1.265 µM) of the same compound?
Its relative viability is 0.436.

And the relative viability (NCI-H596; first compound 0.04 µM)?
Its relative viability is 0.772.

What about the relative viability (NCI-H596; first compound 0.1265 µM) of the same compound?
Its relative viability is 0.808.

And the relative viability (NCI-H596; first compound 0.4 µM)?
The relative viability was 0.79.

And the relative viability (NCI-H596; first compound 1.265 µM)?
Its relative viability is 0.737.

And the relative viability (NCI-H1792; first compound 0.1265 µM)?
Its relative viability is 0.475.

And the relative viability (NCI-H1792; first compound 0.4 µM)?
The relative viability was 0.353.

What about the relative viability (NCI-H1792; first compound 1.265 µM) of the same compound?
Its relative viability is 0.413.

And the relative viability (LC-2-ad; first compound 0.04 µM)?
Its relative viability is 0.584.

And the relative viability (LC-2-ad; first compound 0.1265 µM)?
The relative viability was 0.634.

And the relative viability (LC-2-ad; first compound 0.4 µM)?
The relative viability was 0.536.

And the relative viability (LC-2-ad; first compound 1.265 µM)?
The relative viability was 0.494.

What about the relative viability (NCI-H441; first compound 0.04 µM) of the same compound?
The relative viability was 0.765.

And the relative viability (NCI-H441; first compound 0.1265 µM)?
Its relative viability is 1.15.

What about the relative viability (NCI-H441; first compound 0.4 µM) of the same compound?
The relative viability was 0.807.

What about the relative viability (NCI-H441; first compound 1.265 µM) of the same compound?
The relative viability was 0.28.

What about the relative viability (CAL-12T; first compound 0.04 µM) of the same compound?
The relative viability was 0.549.

What about the relative viability (CAL-12T; first compound 0.1265 µM) of the same compound?
Its relative viability is 0.629.

And the relative viability (CAL-12T; first compound 0.4 µM)?
Its relative viability is 0.579.

And the relative viability (CAL-12T; first compound 1.265 µM)?
Its relative viability is 0.337.

And the relative viability (NCI-H1944; first compound 0.04 µM)?
The relative viability was 0.191.

And the relative viability (NCI-H1944; first compound 0.1265 µM)?
The relative viability was 0.214.

What about the relative viability (NCI-H1944; first compound 0.4 µM) of the same compound?
Its relative viability is 0.194.

And the relative viability (NCI-H1944; first compound 1.265 µM)?
The relative viability was 0.172.

And the relative viability (NCI-H520; first compound 0.04 µM)?
Its relative viability is 0.583.

And the relative viability (NCI-H520; first compound 0.1265 µM)?
The relative viability was 0.82.

And the relative viability (NCI-H520; first compound 0.4 µM)?
The relative viability was 0.585.

What about the relative viability (NCI-H520; first compound 1.265 µM) of the same compound?
The relative viability was 0.594.

And the relative viability (A-427; first compound 0.04 µM)?
Its relative viability is 0.317.

And the relative viability (A-427; first compound 0.1265 µM)?
The relative viability was 0.446.

What about the relative viability (A-427; first compound 0.4 µM) of the same compound?
The relative viability was 0.304.

And the relative viability (A-427; first compound 1.265 µM)?
Its relative viability is 0.264.

What about the relative viability (NCI-H1915; first compound 0.04 µM) of the same compound?
The relative viability was 0.376.

And the relative viability (NCI-H1915; first compound 0.1265 µM)?
The relative viability was 0.362.

And the relative viability (NCI-H1915; first compound 0.4 µM)?
The relative viability was 0.34.

What about the relative viability (NCI-H1915; first compound 1.265 µM) of the same compound?
Its relative viability is 0.295.

And the relative viability (H3255; first compound 0.04 µM)?
Its relative viability is 0.343.

What about the relative viability (H3255; first compound 0.1265 µM) of the same compound?
The relative viability was 0.354.

What about the relative viability (H3255; first compound 0.4 µM) of the same compound?
Its relative viability is 0.39.

What about the relative viability (H3255; first compound 1.265 µM) of the same compound?
Its relative viability is 0.372.

And the relative viability (BEN; first compound 0.04 µM)?
Its relative viability is 0.274.

And the relative viability (BEN; first compound 0.1265 µM)?
Its relative viability is 0.283.

And the relative viability (BEN; first compound 0.4 µM)?
Its relative viability is 0.247.

And the relative viability (BEN; first compound 1.265 µM)?
The relative viability was 0.246.

And the relative viability (NCI-H460; first compound 0.04 µM)?
Its relative viability is 0.536.

And the relative viability (NCI-H460; first compound 0.1265 µM)?
The relative viability was 0.526.

And the relative viability (NCI-H460; first compound 0.4 µM)?
Its relative viability is 0.507.

What about the relative viability (NCI-H460; first compound 1.265 µM) of the same compound?
Its relative viability is 0.46.

What about the relative viability (NCI-H2023; first compound 0.04 µM) of the same compound?
The relative viability was 0.412.

And the relative viability (NCI-H2023; first compound 0.1265 µM)?
The relative viability was 0.491.

And the relative viability (NCI-H2023; first compound 0.4 µM)?
Its relative viability is 0.44.

And the relative viability (NCI-H2023; first compound 1.265 µM)?
Its relative viability is 0.278.

What about the relative viability (201T; first compound 0.04 µM) of the same compound?
Its relative viability is 0.477.

And the relative viability (201T; first compound 0.1265 µM)?
The relative viability was 0.45.

What about the relative viability (201T; first compound 0.4 µM) of the same compound?
The relative viability was 0.456.

And the relative viability (201T; first compound 1.265 µM)?
Its relative viability is 0.437.
